Measurements published in ChEMBL document CHEMBL3507680, “University of Dundee, Gates Library screen for HepG2 cell viability”.

Assay: Human HepG2 cell viability assay in 384 well format
Format: toxicity, cell-based
Parameters: dose 125 nL, time 70.5 hour; concentration not given beside the values
Details: HepG2 cells, read-out: Inhibition
`Cn1cc(C2CC3(CCN(C(=O)c4cccs4)CC3)NC2=O)cn1` (stereo unspecified) gave a cytotoxicity at 70.5 h of 1.02%.
`Cc1cc(C(=O)N(CCN(C)C)Cc2ccc(Cl)cc2)no1` showed a cytotoxicity at 70.5 h of -0.353%.
In the case of `CCNC(=O)Nc1ccc2c(ccn2CC(=O)N(CC)CC)c1`, the cytotoxicity at 70.5 h is reported as -0.739%.
`COCCn1cc(C(=O)N2CCCC2c2cc(C)no2)ccc1=O` (stereo unspecified) showed a cytotoxicity at 70.5 h of -11.6%.
In the case of `COCC1c2nnn(CC3CC3)c2CCN1C(=O)c1cccc(F)c1` (stereo unspecified), the cytotoxicity at 70.5 h is reported as -6.77%.
`Cc1cc(Br)c2c(c1)C1(CC(=O)Nc3c1cnn3C(C)C)C(=O)N2` (stereo unspecified) gave a cytotoxicity at 70.5 h of -24.3%.
In the case of `Cc1noc([C@@H]2CC[C@@H]3[C@@H](CCN3c3nnc(C)s3)O2)n1`, the cytotoxicity at 70.5 h is reported as -8.18%.
`COCCn1cncc1CN1CCCC(C)(c2ccccc2)C1` (stereo unspecified) gave a cytotoxicity at 70.5 h of 18%.
`O=C(NC1CC1)c1nc2c(s1)CCCN2c1ccccc1` showed a cytotoxicity at 70.5 h of -6.79%.
Compound `CC(Oc1ccc2c(c1)OCO2)C(=O)N1CCC(N2CCOCC2)CC1` (stereo unspecified) has a cytotoxicity at 70.5 h of -2.72%.
For `Cn1ccc(C(=O)N2CCN(c3cc(C#N)ccn3)CC2)cc1=O`, the cytotoxicity at 70.5 h was -7.65%.
Compound `CS(=O)(=O)CCCNCc1c(Cl)cccc1N1CCCC1` has a cytotoxicity at 70.5 h of -10.5%.
In the case of `CCc1cnc(C)nc1NCCC(=O)N1CCC(C)CC1`, the cytotoxicity at 70.5 h is reported as -0.743%.
For `CN(C)C(=O)N1CCC2(CCCN(Cc3cnn(C)c3)C2)C1` (stereo unspecified), the cytotoxicity at 70.5 h was 6.69%.
`Cn1ccc(C(=O)N(CC(F)F)c2cccc(Cl)c2)cc1=O` gave a cytotoxicity at 70.5 h of -2.11%.
Compound `CCn1ncnc1C1CC(=O)NCc2nc(N3CCCC3)sc21` (stereo unspecified) has a cytotoxicity at 70.5 h of -21.6%.
Compound `CC(C)(C)c1nnc(CN2CCCC2Cn2cncn2)o1` (stereo unspecified) has a cytotoxicity at 70.5 h of -11.3%.
`CCNC(=O)N(Cc1ccoc1)C1CCCCC1` gave a cytotoxicity at 70.5 h of -5.6%.
In the case of `O=C(NCCC1=CCCCC1)c1ccc(-n2cccc2)nc1`, the cytotoxicity at 70.5 h is reported as -3.84%.
With `CNC(=O)C1(c2cnccn2)CCCN1C(=O)c1ccccc1` (stereo unspecified) the cytotoxicity at 70.5 h was 17.8%.
For `O=C(CCC(=O)N1CCc2ccccc2C1)c1cccs1`, the cytotoxicity at 70.5 h was 2.72%.
Compound `N#Cc1cc(F)c(NCCc2ccc(F)cc2)c(F)c1` has a cytotoxicity at 70.5 h of -2.9%.
`CCOCC1CC2(CCN(C(=O)c3cscn3)CC2)CO1` (stereo unspecified) gave a cytotoxicity at 70.5 h of -9.28%.
Compound `COc1ccc(-c2noc(C3CC(C(C)C)=NO3)n2)cc1` (stereo unspecified) has a cytotoxicity at 70.5 h of 1.77%.
`O=C1NCCN1C1CCCN(Cc2coc(-c3cccs3)n2)C1` (stereo unspecified) showed a cytotoxicity at 70.5 h of -6.11%.
For `COCCn1cnnc1CCn1ccnc1-c1ccccc1Cl`, the cytotoxicity at 70.5 h was 5.9%.
`COc1cccc(NC(=O)N2CCC(O)(C(F)(F)F)C2)c1` (stereo unspecified) gave a cytotoxicity at 70.5 h of -2.52%.
For `Cc1cnn(CCC(=O)Nc2ccc(F)cc2OCC2CC2)c1`, the cytotoxicity at 70.5 h was -12.1%.
With `CNc1cncc(C2CCCN2S(=O)(=O)c2ccc(F)cc2)n1` (stereo unspecified) the cytotoxicity at 70.5 h was -2.18%.
`Cc1ccc2c(n1)N(Cc1cccnc1)CCN(Cc1cnn(C)c1)C2` gave a cytotoxicity at 70.5 h of -2.59%.
`O=C(O)C1(Cc2ccccc2Cl)CCN(c2ncccn2)CC1` gave a cytotoxicity at 70.5 h of -10.5%.
In the case of `CNC(=O)C1(CCCc2ccccn2)CN(Cc2scnc2C)C1`, the cytotoxicity at 70.5 h is reported as 27.6%.
In the case of `CN(C)c1nccc(C2CCCN2S(=O)(=O)c2cn(C)cn2)n1` (stereo unspecified), the cytotoxicity at 70.5 h is reported as -15.2%.
In the case of `Cc1cc(NCCNc2ncccc2C)n2nc(C)cc2n1`, the cytotoxicity at 70.5 h is reported as -15.2%.
With `Cc1cccc(N2CCN(C(=O)Nc3cnn(CC(N)=O)c3)CC2)c1` the cytotoxicity at 70.5 h was -18.1%.
Work on `COc1ncc(C2(O)CCN(Cc3ccccc3O)CC2)c(OC)n1` yielded a cytotoxicity at 70.5 h of 7.32%.
For `Cn1ccnc1SCCNC1CCN(c2ncccn2)CC1`, the cytotoxicity at 70.5 h was -1.29%.
Compound `Cc1cnc2n(c1=O)CC(C(=O)Nc1cccc3cccnc13)CS2` (stereo unspecified) has a cytotoxicity at 70.5 h of -5.53%.
`CN(C(=O)CN1CCOC(Cn2cccn2)C1)c1nccs1` (stereo unspecified) showed a cytotoxicity at 70.5 h of 9.89%.
`CC(C)c1ncc(C(=O)N(C)c2ccc(Br)cn2)s1` showed a cytotoxicity at 70.5 h of 5.45%.
In the case of `COCCN1CCN(CC(=O)NC2(C#N)CCCC2)CC1C` (stereo unspecified), the cytotoxicity at 70.5 h is reported as 7.99%.
Compound `CC(=O)NCCCNC(=O)Nc1ccccc1-n1nc(C)cc1C` has a cytotoxicity at 70.5 h of 0.874%.
Work on `Cc1cc(C)cc(OCC(=O)NC2CCN(S(C)(=O)=O)CC2)c1` yielded a cytotoxicity at 70.5 h of 23.8%.
In the case of `CNC(=O)[C@@]12CCC3(CCN(C(C)=O)CC3)[C@@H]1CN(S(C)(=O)=O)C2`, the cytotoxicity at 70.5 h is reported as -4.49%.
In the case of `CCn1ccnc1CN1CCCC(CO)(CCCc2ccccc2)C1` (stereo unspecified), the cytotoxicity at 70.5 h is reported as -0.875%.
Work on `CCCc1nc(CN(CCO)Cc2cc(Br)ccc2F)no1` yielded a cytotoxicity at 70.5 h of -13.1%.
